Test results: US20160060209A1, “BIS A[…] COMPLEXES FOR X-RAY IMAGING” (BAYER PHARMA AKTIENGESELLSCHAFT üß, priority 2013, published 2016)

Assay: Stability of bis azainositol hafnium complexes in aqueous buffered solution on heat treatment (steam autoclave)
Format: physicochemical
Details: aqueous buffered solution pH 7.4, 5 mmol/L, 121° C. for 45 minutes in steam autoclave; HPLC peak area ratio x metal concentration ratio (ICP-OES)
Method: The stability of bis azainositol hafnium complexes was determined in aqueous, buffered solution at pH 7.4. The solution containing 5 mmol/L of the compound in a tightly sealed vessel was heated to 121° C. for 45 minutes in a steam autoclave. The hafnium concentration of the solution was determined by ICP-OES before and after heat treatment. The integrity of the compound was determined by HPLC analysis before and after heat treatment. Absolute stability was calculated as the ratio of the peak area of the compound after and before the heat treatment multiplied with the ratio of the metal concentration of the solution after and before heat treatment.
HPLC system: Column 1: Reversed phase C18.
Solvent A1: 0.5 mM tetrabutylammonium phosphate pH 6 Solvent A2: 0.1% formic acid in water Solvent B1: methanol Solvent B2: acetonitrile
The use of columns, solvents, flow rate and gradients is detailed in the table below. Detector: element specific detection by ICP-MS, running at m/z 180, the most abundant isotope of hafnium

**Q.** For “Bis[μ3-2,2′-({[1R-(1α,2α,3α,4α,5α,6α)]-5-[(2-carboxylato-3κO-ethyl)amino-3κN^5]-2,4,6-trihydroxylato-1κ^2O^2O^6,2κ^2O^2O^4,3κ^2O^4O^6-cyclohexane-1,3-diyl}diimino-1κN^1,2κN^3)di-acetato-1κO,2κO′]trihafnium(IV) [Example 10]”, which Stability is on record?
**A.** 101%

**Q.** For “Hydroxido-3κO-[μ3-3,3′,3″-({[1R-(1α,2α,3α,4α,5α,6α)]-2,4,6-trihydroxylato-1κ^2O^2O^6, 2κ^2O^2O^4,3κ^2O^4O^6-cyclohexane-1,3,5-triyl}tris{methylimino-1κN^1,2κN^3,3κN^5}) tri-propanoato-1κO,2κO′,3κO″][μ3-3,3′-({[1R-(1α,2α,3α,4α,5α,6α)]-2,4,6-trihydroxylato-1κ^2O^2O^6,2κ^2O^2O^4,3κ^2O^4O^6-5-[methylamino-3κN^5]cyclohexane-1,3-diyl}bis{methyl-imino-1κN^1,2κN^3})dipropanonato-1κO,2κO′]trihafnium (IV) [Example 1]”, which Stability is on record?
**A.** 100%

**Q.** Which Stability does the source give for “Bis[μ3-2,2′-({[1R-(1α,2α,3α,4α,5α,6α)]-2,4,6-trihydroxylato-1κ^2O^2O^6,2κ^2O^2O^4,3κ^2O^4O^6-5-[(2-hydroxylato-3κO-ethyl)amino-3κN^5]cyclohexane-1,3-diyl}diimino-1κN^1,2κN^3)di-acetato-1κO,2κO′]trihafnium (IV) [Example 8]” here?
**A.** 100%

**Q.** With “Bis[μ3-3,3′-({[1R-(1α,2α,3α,4α,5α,6α)]-5-[(2S,3R)(3,4-dihydroxy-2-hydroxylato-3κO-butyl)amino-3κN^5]-2,4,6-trihydroxylato-1κ^2O^2O^6,2κ^2O^2O^4,3κ^2O^4O^6-cyclohexane-1,3-diyl}diimino-1κN^1,2κN^3)dipropanoato-1κO,2κO′]trihafnium(IV) [Example 5]” as the substance, how does the Stability read?
**A.** 101%

**Q.** With “Bis[μ3-3,3′-({[1R-(1α,2α,3α,4α,5α,6α)]-2,4,6-trihydroxylato-1κ^2O^2O^6,2κ^2O^2O^4,3κ^2O^4O^6-5-[(2-hydroxylato-3κO-ethyl)amino-3κN^5]cyclohexane-1,3-diyl}diimino-1κN1,2κN^3)di-propanoato-1κO,2κO′]trihafnium (IV) [Example 3]” as the substance, how does the Stability read?
**A.** 100%
